Reference: US7172862B2, “FBL2-specific agents as modulators of Flaviviridae RNA replication” (Board of Regents, The University of Texas System, priority 2005, dated 2007)
Numbering of substitutions follows the chain as printed. In names and notes the source's numbering stands.

Assays:
wild-type FBL2 = experiment: Subcellular fractionation (cytosol/membrane) and immunoblot of transfected wild-type FBL2 in CHO-7 cells; type: cell-based; details: CHO-7 cells transfected with Myc-tagged wild-type FBL2; immunoblot anti-Myc
Procedure: (§1) Since prenylation of proteins normally facilitates their membrane association, we compared the localization of wild-type FBL2 and the mutant FBL2 that cannot be prenylated. CHO-7 cells transfected with a plasmid encoding NH2-terminal Myc-tagged wild-type FBL2 or mutant FBL2(C420S) were treated either with GGTI-286, a drug that inhibits both geranylgeranylation and farnesylation, or with FPTI-III, a drug that inhibits only farnesylation (Ye et al., 2003). Cells were fractionated into cytosol and membrane fractions, and immunoblotted with monoclonal anti-Myc IgG-9E10.

HCV RNA replication = details: cited from earlier work; for overcoming of the inhibition of HCV RNA replication by lovastatin: added with lovastatin
HCV RNA = HCV RNA level / replication in Huh7-HP replicon cells; type: cell-based; details: drug treatment
Text: Further evidence that FBL2 is required for HCV RNA replication was obtained in experiments in which the level of FBL2 mRNA was reduced by transfection with duplex siRNA. An siRNA sequence targeting human FBL2 and having a sequence corresponding to positions 40-60 relative to the first nucleotide start codon, was transfected into Huh7-HP cells with TransMessenger transfection reagent (Qiagen) according to the manufacturer's protocol. […] We confirmed that these cells resemble the other HCV replicon cell lines in that HCV replication is inhibited by treatment with lovastatin (Ye et al., 2003) or an inhibitor of GGTase-I, GGTI-286. The NS5A derived from these cells interacts with FBL2. siRNA targeting FBL2 was and produced a 70% knockdown of FBL2 mRNA, an effect that was not observed when the cells were treated with a control siRNA containing 6 mismatched nucleotides.

mutant FBL2(C420S) = experiment: Subcellular fractionation (cytosol/membrane) and immunoblot of transfected mutant FBL2(C420S) in CHO-7 cells; type: cell-based; details: CHO-7 cells transfected with Myc-tagged FBL2(C420S)
Procedure: as §1

HCV RNA replicon = experiment: HCV RNA level in Huh7-K2040 replicon cells after transfection of FBL2 plasmids; type: cell-based; details: at least 80% of cells transfected
Text: FBL2(67-423), which lacks an F-box, is likely to be nonfunctional, yet it still binds to NS5A. We therefore considered the possibility that overexpression of FBL2(67-423) may inhibit HCV RNA replication in a dominant-negative fashion by sequestering NS5A and preventing it from interacting with endogenous functional FBL2. To test this hypothesis, we transfected plasmids encoding wild-type and various mutant versions of FBL2 into Huh7-K2040 cells that harbor the HCV RNA replicon. As described above, we included only those experiments in which at least 80% of the cells were transfected. […] Importantly, transfected FBL2(67-423; C420S), which cannot bind to NS5A, had no effect on HCV RNA levels.

NS5A = details: Huh7 cells; anti-Flag pull-down of NS5A, anti-Myc blot
Text: To determine the components of FBL2 that are required for interaction with the NH2-terminal half of NS5A, we made plasmids encoding the following proteins: NH2-terminal Myc-tagged wild-type FBL2, FBL2 with its CAAX box mutated so that it cannot be geranylgeranylated (C420S), FBL2 with its NH2-terminal F-box deleted (FBL2(67-423)), and FBL2 with both its F-box deleted and its CAAX box mutated (FBL2 67-423, C420S). These plasmids were transfected into Huh7 cells together with a plasmid encoding Flag and HA-tagged NS5A. Cell extracts were immunoprecipitated with anti-Flag beads to pull down NS5A and blotted with anti-HA and anti-Myc for detection of transfected NS5A and FBL2, respectively.

West Nile virus replicon = West Nile virus replicon RNA level in Huh7-WNV-2 cells after transfection of FBL2 plasmids; type: cell-based; details: conditions reducing HCV RNA by 75%

**Q.** Which “localization of wild-type FBL2 in cytosol and membrane fractions” value (wild-type FBL2) does the source give for FPTI-III here?
**A.** Its value is “not”.

**Q.** Which “overcoming of the inhibition of HCV RNA replication by lovastatin” value (HCV RNA replication) does the source give for `CC(C)=CCC/C(C)=C/CC/C(C)=C/CC/C(C)=C/CO` [geranylgeraniol] here?
**A.** The value was “overcome”.

**Q.** Which results are given for `CC[C@H](C)C(=O)O[C@H]1C[C@@H](C)C=C2C=C[C@H](C)[C@H](CC[C@@H]3C[C@@H](O)CC(=O)O3)[C@H]21` [lovastatin]?
**A.** HCV RNA replication (HCV RNA replication; Huh7 cells): disrupted; HCV replication (HCV RNA): inhibited

**Q.** With `COC(=O)[C@H](CC(C)C)NC(=O)c1ccc(NC[C@@H](N)CS)cc1-c1ccccc1` [GGTI-286] as the molecule, how does the HCV replication (HCV RNA) read?
**A.** Its HCV replication is “inhibited”.

**Q.** And the “subcellular localization of the mutant FBL2 that lacks a CAAX motif” value (mutant FBL2(C420S))?
**A.** The value was “did not change”.

**Q.** And the “localization of wild-type FBL2 in cytosol and membrane fractions” value (wild-type FBL2)?
**A.** The value was “distributed equally in cytosol and membrane fractions”.

**Q.** With `CC(C)=CCCC(C)=CCCC(C)=CCO` [farnesol] as the molecule, how does the “overcoming of the inhibition of HCV RNA replication by lovastatin” value (HCV RNA replication) read?
**A.** The value was “not”.

B1: FBL2(50-423): alternative FBL2 N-terminal truncation (protein, UniProt Q9UKC9 50-423, looked up, fragment)
chain: SNWQRIDLFNFQTDVEGRVVENISKRCGGFLRKLSLRGCIGVGDSSLKTFAQNCRNIEHLNLNGCTKITDSTCYSLSRFCSKLKHLDLTSCVSITNSSLKGISEGCRNLEYLNLSWCDQITKDGIEALVRGCRGLKALLLRGCTQLEDEALKHIQNYCHELVSLNLQSCSRITDEGVVQICRGCHRLQALCLSGCSNLTDASLTALGLNCPRLQILEAARCSHLTDAGFTLLARNCHELEKMDLEECILITDSTLIQLSIHCPKLQALSLSHCELITDDGILHLSNSTCGHERLRVLELDNCLLITDVALEHLENCRGLERLELYDCQQVTRAGIKRMRAQLPHVKVHAYFAPVTPPTAVAGSGQRLCRCCVIL
**Q.** For B1, which “reduction of the level of HCV RNA” value (HCV RNA replicon) is on record?
**A.** Its value is “dominant-negative affects”.

B2: wild-type FBL2: NH2-terminal Myc-tagged wild-type FBL2 expressed from a transfected plasmid (protein, UniProt Q9UKC9 1-423, looked up)
F-box/LRR-repeat protein 2: MVFSNNDEGLINKKLPKELLLRIFSFLDIVTLCRCAQISKAWNILALDGSNWQRIDLFNFQTDVEGRVVENISKRCGGFLRKLSLRGCIGVGDSSLKTFAQNCRNIEHLNLNGCTKITDSTCYSLSRFCSKLKHLDLTSCVSITNSSLKGISEGCRNLEYLNLSWCDQITKDGIEALVRGCRGLKALLLRGCTQLEDEALKHIQNYCHELVSLNLQSCSRITDEGVVQICRGCHRLQALCLSGCSNLTDASLTALGLNCPRLQILEAARCSHLTDAGFTLLARNCHELEKMDLEECILITDSTLIQLSIHCPKLQALSLSHCELITDDGILHLSNSTCGHERLRVLELDNCLLITDVALEHLENCRGLERLELYDCQQVTRAGIKRMRAQLPHVKVHAYFAPVTPPTAVAGSGQRLCRCCVIL
modifications: N-terminal Myc tag
notes: NH2-terminal Myc-tagged wild-type FBL2 expressed from a transfected plasmid
**Q.** For B2, which “reduction of the level of HCV RNA” value (HCV RNA replicon) is on record?
**A.** Its value is “did not change”.

**Q.** What about the “co-precipitation with NS5A” value (NS5A) of the same molecule?
**A.** The value was “co-precipitated”.

B3: FBL2(67-423): FBL2 with its NH2-terminal F-box deleted; dominant-negative for HCV RNA replication (protein, UniProt Q9UKC9 67-423, looked up, fragment)
chain: RVVENISKRCGGFLRKLSLRGCIGVGDSSLKTFAQNCRNIEHLNLNGCTKITDSTCYSLSRFCSKLKHLDLTSCVSITNSSLKGISEGCRNLEYLNLSWCDQITKDGIEALVRGCRGLKALLLRGCTQLEDEALKHIQNYCHELVSLNLQSCSRITDEGVVQICRGCHRLQALCLSGCSNLTDASLTALGLNCPRLQILEAARCSHLTDAGFTLLARNCHELEKMDLEECILITDSTLIQLSIHCPKLQALSLSHCELITDDGILHLSNSTCGHERLRVLELDNCLLITDVALEHLENCRGLERLELYDCQQVTRAGIKRMRAQLPHVKVHAYFAPVTPPTAVAGSGQRLCRCCVIL
**Q.** For B3, which “co-precipitation with NS5A” value (NS5A) is on record?
**A.** Its value is “co-precipitated”.

**Q.** And the “change in the level of West Nile virus replicon RNA” value (West Nile virus replicon)?
**A.** The value was “no significant change”.

B4: FBL2(67-423; C420S): FBL2 with both its F-box deleted and its CAAX box mutated (protein, UniProt Q9UKC9 67-423, looked up, fragment C420S)
chain: B3 chain with C354S
**Q.** For B4, which “reduction of the level of HCV RNA” value (HCV RNA replicon) is on record?
**A.** Its value is “no effect”.

**Q.** What about the “co-precipitation with NS5A” value (NS5A) of the same molecule?
**A.** Its value is “abrogated binding”.

B5: FBL2(100-423): alternative FBL2 N-terminal truncation (protein, UniProt Q9UKC9 100-423, looked up, fragment)
chain: AQNCRNIEHLNLNGCTKITDSTCYSLSRFCSKLKHLDLTSCVSITNSSLKGISEGCRNLEYLNLSWCDQITKDGIEALVRGCRGLKALLLRGCTQLEDEALKHIQNYCHELVSLNLQSCSRITDEGVVQICRGCHRLQALCLSGCSNLTDASLTALGLNCPRLQILEAARCSHLTDAGFTLLARNCHELEKMDLEECILITDSTLIQLSIHCPKLQALSLSHCELITDDGILHLSNSTCGHERLRVLELDNCLLITDVALEHLENCRGLERLELYDCQQVTRAGIKRMRAQLPHVKVHAYFAPVTPPTAVAGSGQRLCRCCVIL
**Q.** With B5 as the molecule, how does the “reduction of the level of HCV RNA” value (HCV RNA replicon) read?
**A.** Its value is “dominant-negative affects”.
